Reference: US7601673B2 (priority 2004, dated 2009)
Read-outs that look alike come from different tables or passages of the source.

Test system: Phytophthora infestans
Assay type: in vivo, Phytophthora infestans on tomato plants
Conditions: individual active compound, tomato leaves, protective, rated after 6 days

Cc1c(Br)c2ccc(F)cc2n1S(=O)(=O)c1ncn(S(=O)(=O)N(C)C)n1 [I-62, Tab.7 (IA), N,N-dimethyl-3-(3-bromo-6-fluoro-2-methylindole-1-sulfonyl)-[1,2,4]triazole-1-sulfonamide]
Efficacy in % of the untreated control (1 ppm in the spray liquor): 56%

CC1CCN(c2c(-c3c(F)cc(F)cc3F)c(Cl)nc3ncnn23)CC1 [II, 5-chloro-7-(4-methylpiperidin-1-yl)-6-(2,4,6-trifluorophenyl)-[1,2,4]triazolo[1,5-a]pyrimidine]
Efficacy in % of the untreated control (0.25 ppm in the spray liquor): 0% | Efficacy in % of the untreated control (1 ppm in the spray liquor): 0% | Efficacy in % of the untreated control (4 ppm in the spray liquor): 0%
